Results published in patent publication US20240018122A1, “PYRIDAZINYL AMINO DERIVATIVES AS ALK5 INHIBITORS” (CHIESI FARMACEUTICI S.P.A., priority 2020, published 2024).
Where two headings read alike, the source gives them in different places.

Molecular target: human ALK5 (Homo sapiens (Human), UniProt P36897)
Experiment: ADP-GLO Kinases assay, inhibitory activity on ALK5
Assay type: biochemical
[1] = purified recombinant human ALK5 2.6 nM, TGFβ1 peptide substrate, 25° C, 150 min incubation, ADP-Glo detection, read-out: ALK5 IC50

Chain of human ALK5 (P36897 80-503 limits assumed): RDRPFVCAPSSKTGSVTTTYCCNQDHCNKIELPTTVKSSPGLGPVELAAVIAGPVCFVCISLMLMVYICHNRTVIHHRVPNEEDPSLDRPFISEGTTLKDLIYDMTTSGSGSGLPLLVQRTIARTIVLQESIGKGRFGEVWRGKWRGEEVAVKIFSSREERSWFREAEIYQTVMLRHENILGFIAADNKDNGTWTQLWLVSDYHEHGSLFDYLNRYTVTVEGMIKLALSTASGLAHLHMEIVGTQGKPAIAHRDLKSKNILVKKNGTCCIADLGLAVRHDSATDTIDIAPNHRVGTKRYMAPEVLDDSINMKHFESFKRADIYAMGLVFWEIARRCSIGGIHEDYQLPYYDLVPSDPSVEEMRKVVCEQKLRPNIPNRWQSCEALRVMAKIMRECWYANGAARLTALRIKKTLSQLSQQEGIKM

Row | SMILES | IC50 [1] [nM] | IC50 [nM]
1 | Cc1nnc(-c2cc(Cl)ccc2F)cc1Nc1ccnc(NC(=O)CCN2CCN(CCNS(C)(=O)=O)CC2)c1 [Example 136, N-(4-{[6-(5-Chloro-2-Fluorophenyl)-3-Methylpyridazin-4-Yl]Amino}Pyridin-2-Yl)-3-[4-(2-Methanesulfonamidoethyl)Piperazin-1-Yl]Propanamide] | < 1 | –
2 | CN1CC2CC1CN2C(=O)Oc1ccc2c(Nc3cnnc(-c4cc(Cl)ccc4F)c3)ccnc2c1 (stereo not shown) [Example 137, 4-{[6-(5-Chloro-2-Fluorophenyl)Pyridazin-4-Yl]Amino}Quinolin-7-Yl 5-Methyl-2,5-Diazabicyclo[2.2.1]Heptane-2-Carboxylate] | < 1 | –
3 | Cc1nnc(-c2cc(Cl)ccc2F)cc1Nc1ccnc(NC(=O)CCN2CC3(CN(C)C3)C2)c1 [Example 138, N-(4-{[6-(5-Chloro-2-Fluorophenyl)-3-Methylpyridazin-4-Yl]Amino}Pyridin-2-Yl)-3-{6-Methyl-2,6-Diazaspiro[3.3]Heptan-2-Yl}Propanamide] | < 1 | –
4 | Cc1nnc(-c2cc(Cl)ccc2F)cc1Nc1ccnc(NC(=O)CCN2CCC(F)(F)CC2)c1 [Example 139, N-(4-{[6-(5-Chloro-2-Fluorophenyl)-3-Methylpyridazin-4-Yl]Amino}Pyridin-2-Yl)-3-(4,4-Difluoropiperidin-1-Yl)Propanamide] | < 1 | –
5 | Cc1nnc(-c2cc(Cl)ccc2F)cc1Nc1ccnc(NC(=O)CCN2CCC(O)CC2)c1 [Example 140, N-(4-{[6-(5-Chloro-2-Fluorophenyl)-3-Methylpyridazin-4-Yl]Amino}Pyridin-2-Yl)-3-(4-Hydroxypiperidin-1-Yl)Propanamide] | < 1 | –
6 | Cc1nnc(-c2cc(Cl)ccc2F)cc1Nc1ccnc(NC(=O)NCCN2CCN(C)CC2)c1 [Example 141, 1-(4-{[6-(5-Chloro-2-Fluorophenyl)-3-Methylpyridazin-4-Yl]Amino}Pyridin-2-Yl)-3-[2-(4-Methylpiperazin-1-Yl)Ethyl]Urea] | < 1 | –
7 | Cc1nnc(-c2cc(Cl)ccc2F)cc1Nc1ccnc(NC(=O)CN2CC3(CN(C)C3)C2)c1 [Example 143, N-(4-{[6-(5-Chloro-2-Fluorophenyl)-3-Methylpyridazin-4-Yl]Amino}Pyridin-2-Yl)-2-{6-Methyl-2,6-Diazaspiro[3.3]Heptan-2-Yl}Acetamide] | < 1 | –
8 | Cc1nnc(-c2cc(Cl)ccc2F)cc1Nc1ccnc(NC(=O)CN2CCN(C)C3(CC3)C2)c1 [Example 144, N-(4-{[6-(5-Chloro-2-Fluorophenyl)-3-Methylpyridazin-4-Yl]Amino}Pyridin-2-Yl)-2-{4-Methyl-4,7-Diazaspiro[2.5]Octan-7-Yl}Acetamide] | < 1 | –
9 | Cc1nnc(-c2cc(Cl)ccc2F)cc1Nc1ccnc(NC(=O)CCN2CCN(C)C(C)C2)c1 (stereo not shown) [Example 145, N-(4-{[6-(5-Chloro-2-Fluorophenyl)-3-Methylpyridazin-4-Yl]Amino}Pyridin-2-Yl)-3-(3,4-Dimethylpiperazin-1-Yl)Propanamide] | < 1 | –
10 | Cc1nnc(-c2cc(Cl)ccc2F)cc1Nc1ccnc(NC(=O)CCN2CC3CC(C2)N3C)c1 [Example 146, N-(4-{[6-(5-Chloro-2-Fluorophenyl)-3-Methylpyridazin-4-Yl]Amino}Pyridin-2-Yl)-3-{6-Methyl-3,6-Diazabicyclo[3.1.1]Heptan-3-Yl}Propanamide] | < 1 | –
11 | Cc1nnc(-c2cc(Cl)ccc2F)cc1Nc1ccnc(NC(=O)CCN2CCOC3(CN(C)C3)C2)c1 [Example 147, N-(4-{[6-(5-chloro-2-fluorophenyl)-3-methylpyridazin-4-yl]amino}pyridin-2-yl)-3-{2-methyl-5-oxa-2,8-diazaspiro[3.5]nonan-8-yl}propanamide] | < 1 | –
12 | CN1CCN(CCOc2cc3nccc(Nc4cnnc(-c5cc(Cl)ccc5F)c4)c3cc2O)CC1 [Example 148, 4-{[6-(5-Chloro-2-Fluorophenyl)Pyridazin-4-Yl]Amino}-7-[2-(4-Methylpiperazin-1-Yl)Ethoxy]Quinolin-6-Ol] | < 1 | –
13 | Cc1nnc(-c2cc(Cl)ccc2F)cc1Nc1ccnc(NC(=O)N2CCC3(CC2)CN(C)C3)c1 [Example 149, N-(4-{[6-(5-Chloro-2-Fluorophenyl)-3-Methylpyridazin-4-Yl]Amino}Pyridin-2-Yl)-2-Methyl-2,7-Diazaspiro[3.5]Nonane-7-Carboxamide] | < 1 | –
14 | Cc1nnc(-c2cc(Cl)ccc2F)cc1Nc1ccnc(NC(=O)N2CCC3(CCN(C)C3)CC2)c1 [Example 150, N-(4-{[6-(5-Chloro-2-Fluorophenyl)-3-Methylpyridazin-4-Yl]Amino}Pyridin-2-Yl)-2-Methyl-2,8-Diazaspiro[4.5]Decane-8-Carboxamide] | < 1 | –
15 | Cc1nnc(-c2cc(Cl)c(F)cc2F)cc1Nc1ccnc(NC(=O)CCN2CCN(C)CC2)c1 [Example 151, N-(4-{[6-(5-chloro-2,4-difluorophenyl)-3-methylpyridazin-4-yl]amino}pyridin-2-yl)-3-(4-methylpiperazin-1-yl)propanamide] | < 1 | –
16 | Cc1nnc(-c2cc(Cl)ccc2F)cc1Nc1ccnc2cc(OC(=O)N3CC(N4CCCC4)C3)ccc12 [Example 152, 4-{[6-(5-Chloro-2-Fluorophenyl)-3-Methylpyridazin-4-Yl]Amino}Quinolin-7-Yl 3-(Pyrrolidin-1-Yl)Azetidine-1-Carboxylate] | < 1 | –

Row | SMILES | IC50 [1] [nM] | IC50 [nM]
17 | Cc1nnc(-c2cc(Cl)ccc2F)cc1Nc1ccnc2cc(OC(=O)N3CCC(N4CCC4)CC3)ccc12 [Example 153, 4-{[6-(5-Chloro-2-Fluorophenyl)-3-Methylpyridazin-4-Yl]Amino}Quinolin-7-Yl 4-(Azetidin-1-Yl)Piperidine-1-Carboxylate] | < 1 | –
18 | Cc1nnc(-c2cc(Cl)ccc2F)cc1Nc1ccnc(NC(=O)CN2CCCNCC2)c1 [Example 154, N-(4-{[6-(5-Chloro-2-Fluorophenyl)-3-Methylpyridazin-4-Yl]Amino}Pyridin-2-Yl)-2-(1,4-Diazepan-1-Yl)Acetamide] | < 1 | –
19 | CNCCn1cc(C(=O)Nc2cc(Nc3cc(-c4cc(Cl)ccc4F)nnc3C)ccn2)cn1 [Example 155, N-(4-{[6-(5-Chloro-2-Fluorophenyl)-3-Methylpyridazin-4-Yl]Amino}Pyridin-2-Yl)-1-[2-(Methylamino)Ethyl]-1H-Pyrazole-4-Carboxamide] | < 1 | –
20 | Cc1nnc(-c2cc(Cl)ccc2F)cc1Nc1ccnc(NC(=O)c2cnn(CCN(C)C)c2)c1 [Example 156, N-(4-{[6-(5-Chloro-2-Fluorophenyl)-3-Methylpyridazin-4-Yl]Amino}Pyridin-2-Yl)-1-[2-(Dimethylamino)Ethyl]-1H-Pyrazole-4-Carboxamide] | < 1 | –
21 | Cc1nnc(-c2cc(Cl)ccc2F)cc1Nc1ccnc(NC(=O)CC2CCN(C)CC2)c1 [Example 157, N-(4-{[6-(5-Chloro-2-Fluorophenyl)-3-Methylpyridazin-4-Yl]Amino}Pyridin-2-Yl)-2-(1-Methylpiperidin-4-Yl)Acetamide] | < 1 | –
22 | Cc1nnc(-c2cc(Cl)ccc2F)cc1Nc1ccnc(NC(=O)CCCN2CCCNCC2)c1 [Example 158, N-(4-{[6-(5-Chloro-2-Fluorophenyl)-3-Methylpyridazin-4-Yl]Amino}Pyridin-2-Yl)-4-(1,4-Diazepan-1-Yl)Butanamide] | < 1 | –
23 | Cc1nnc(-c2cc(Cl)ccc2F)cc1Nc1ccnc2cc(OC(=O)N3C[C@H]4C[C@@H]3CN4C)ccc12 [Example 159, 4-{[6-(5-chloro-2-fluorophenyl)-3-methylpyridazin-4-yl]amino}quinolin-7-yl (1R,4R)-5-methyl-2,5-diazabicyclo[2.2.1]heptane-2-carboxylate] | – | < 1
24 | Cc1nnc(-c2cc(Cl)ccc2F)cc1Nc1ccnc2cc(OC(=O)N3C[C@@H]4C[C@H]3CN4C)ccc12 [Example 160, 4-{[6-(5-Chloro-2-Fluorophenyl)-3-Methylpyridazin-4-Yl]Amino}Quinolin-7-Yl (1S,4S)-5-Methyl-2,5-Diazabicyclo[2.2.1]Heptane-2-Carboxylate] | – | < 1
25 | Cc1nnc(-c2cc(Cl)ccc2F)cc1Nc1ccnc(NC(=O)CCCN2CCCN(C)CC2)c1 [Example 161, N-(4-{[6-(5-Chloro-2-Fluorophenyl)-3-Methylpyridazin-4-Yl]Amino}Pyridin-2-Yl)-4-(4-Methyl-1,4-Diazepan-1-Yl)Butanamide] | < 1 | –
26 | Cc1nnc(-c2cc(Cl)ccc2F)cc1Nc1ccnc(NC(=O)[C@H]2C[C@@H](N3CCN(C)CC3)C2)c1 [Example 162, Cis N-(4-{[6-(5-Chloro-2-Fluorophenyl)-3-Methylpyridazin-4-Yl]Amino}Pyridin-2-Yl)-3-(4-Methylpiperazin-1-Yl)Cyclobutane-1-Carboxamide] | < 1 | –
27 | Cc1nnc(-c2cc(Cl)ccc2F)cc1Nc1ccnc(NC(=O)CCN2CCN(C)CC2CO)c1 (stereo not shown) [Example 163, N-(4-{[6-(5-chloro-2-fluorophenyl)-3-methylpyridazin-4-yl]amino}pyridin-2-yl)-3-[2-(hydroxymethyl)-4-methylpiperazin-1-yl]propanamide] | < 1 | –
28 | Cc1nnc(-c2cc(Cl)ccc2F)cc1Nc1ccnc(NC(=O)CN2CCNCC2)c1 [Example 164, N-(4-{[6-(5-Chloro-2-Fluorophenyl)-3-Methylpyridazin-4-Yl]Amino}Pyridin-2-Yl)-2-(Piperazin-1-Yl)Acetamide] | < 1 | –
29 | COC(=O)c1cc2c(Nc3cc(-c4cc(Cl)ccc4F)nnc3CO)ccnc2cc1OCCN1CCN(C)CC1 [Example 165, Methyl 4-{[6-(5-Chloro-2-Fluorophenyl)-3-(Hydroxymethyl)Pyridazin-4-Yl]Amino}-7-[2-(4-Methylpiperazin-1-Yl)Ethoxy]Quinoline-6-Carboxylate] | < 1 | –
30 | Cc1nnc(-c2cc(Cl)ccc2F)cc1Nc1ccnc(NC(=O)CN2CCCN(C)CC2)c1 [Example 166, N-(4-{[6-(5-Chloro-2-Fluorophenyl)-3-Methylpyridazin-4-Yl]Amino}Pyridin-2-Yl)-2-(4-Methyl-1,4-Diazepan-1-Yl)Acetamide] | < 1 | –
31 | Cc1nnc(-c2cc(Cl)ccc2F)cc1Nc1ccnc(Nc2ccn(CCN3CCN(C)CC3)n2)c1 [Example 167, N-4-[6-(5-Chloro-2-Fluorophenyl)-3-Methylpyridazin-4-Yl]-N-2-{1-[2-(4-Methylpiperazin-1-Yl)Ethyl]-1H-Pyrazol-3-Yl}Pyridine-2,4-Diamine] | < 1 | –
